# Source: US6008233A, “(1S,2S)-1-(4-hydroxyphenyl)-2-(4- hydroxy-4-phenylipiperidin-1-yl)-1-propanolmethanesulfonate trihydrate” (Pfizer Inc, priority 1998, dated 1999)
# Structures can show the parent of a compound that is named as a salt.
# What was measured:
# [1] = Equilibration of the anhydrous mesylate in an 81% RH environment; format: physicochemical; settings: equilibrated in an 81% RH environment
# Source text: FIG. 1 depicts the X-ray powder diffraction spectrum of the mesylate trihydrate (taken on a Siemens D 5000 diffractometer after equilibration of the anhydrous mesylate at 81% relative humidity ("RH")), expressed as intensity (CPS) versus diffraction angle (two-theta degrees).
# [2] = Hygroscopicity at ambient conditions of the anhydrous mesylate salt (Table 3); format: physicochemical
# Source text: HYGROSCOPICITY AT AMBIENT CONDITIONS OF THE ANHYDROUS MESYLATE SALT
# [3] = Hygroscopicity at 0%, 52% and 98% controlled relative humidities and under ambient laboratory conditions; format: physicochemical
# [4] = system: NMDA (N-methyl-D-aspartic acid) receptor; assay: NMDA receptor antagonist activity; settings: in words
# [5] = system: hippocampal cells; assay: Neuroprotective activity: glutamate toxicity in cultured fetal rat hippocampal cells (LDH release); format: cell-based; settings: in words
# Protocol: The preferred procedure for evaluating the neuroprotective activity of this compound is that described by Ismail A. Shalaby, et al., in J. Pharm. and Experimental Therapeutics, 260, 925 (1992). This article is incorporated herein by reference in its entirety and described below.
# Cell culture. […]
# Glutamate toxicity. The cultures are assessed for glutamate toxicity 2 to 3 weeks from initial plating. […]
# Cell viability is routinely assessed 20 to 24 hours after the excitotoxin exposure by measuring the activity of the cytosolic enzyme LDH. LDH activity is determined from the culture medium of each of the 96 wells of the microtiter plates. […] The 340 nm absorbance of the total reaction mixture for each of the 96 wells is monitored every 5 sec for 2 min by an automated spectrophotometric microtiter plate reader (Molecular Devices; Menlo Park, Calif.). The rate of absorbance is automatically calculated using an IBM SOFTmax program (version 1.01; Molecular Devices) and is used as the index of LDH activity.
# Morphological assessment of neuronal viability is determined using phrase contrast microscopy. […] Quantitatively, both culture platings are equally sensitive to glutamate toxicity, and display 2- to 3-fold increases in LDH activity 24 hours after exposure to 0.1 to 1.0 mM glutamate. […]
# [6] = Stability of crystalline form and shelf life compared to the anhydrous mesylate; format: physicochemical; settings: compared with the corresponding anhydrous salt
# [7] = Bulk stability samples stored in polyethylene bags; format: physicochemical; settings: 40° C./30% RH, 9 months
# Protocol: Weight loss was also observed in bulk stability samples stored in polyethylene bags at 40° C./30% RH (>10% of weight was lost in 9 months).
smiles,measurement,setting,value
CC(C(O)c1ccc(O)cc1)N1CCC(O)(c2ccccc2)CC1 (centres unmarked) [anhydrous mesylate],conversion to the mesylate salt trihydrate,[1],will convert to the mesylate salt trihydrate
same,% Difference from Initial,[2]; 1 hours since initial,0.06%
same,% Difference from Prev. Weighing,[2]; 1 hours since initial,0.06%
same,Weight of Sample,[2]; 1 hours since initial,0.4977 g
same,% Difference from Initial,[2]; 3.5 hours since initial,0.06%
same,% Difference from Prev. Weighing,[2]; 3.5 hours since initial,0.00%
same,Weight of Sample,[2]; 3.5 hours since initial,0.4977 g
same,% Difference from Initial,[2]; 22 hours since initial,0.32%
same,% Difference from Prev. Weighing,[2]; 22 hours since initial,0.26%
same,Weight of Sample,[2]; 22 hours since initial,0.4990 g
same,% Difference from Initial,[2]; 30.5 hours since initial,0.56%
same,% Difference from Prev. Weighing,[2]; 30.5 hours since initial,0.24%
same,Weight of Sample,[2]; 30.5 hours since initial,0.5002 g
same,% Difference from Initial,[2]; 45.5 hours since initial,1.93%
same,% Difference from Prev. Weighing,[2]; 45.5 hours since initial,1.36%
same,Weight of Sample,[2]; 45.5 hours since initial,0.5070 g
same,% Difference from Initial,[2]; 98 hours since initial,2.57%
same,% Difference from Prev. Weighing,[2]; 98 hours since initial,0.63%
same,Weight of Sample,[2]; 98 hours since initial,0.5102 g
same,% Difference from Initial,[2]; 170 hours since initial,3.94%
same,% Difference from Prev. Weighing,[2]; 170 hours since initial,1.33%
same,Weight of Sample,[2]; 170 hours since initial,0.5170 g
same,% Difference from Initial,[2]; 194 hours since initial,3.94%
same,% Difference from Prev. Weighing,[2]; 194 hours since initial,0.00%
same,Weight of Sample,[2]; 194 hours since initial,0.5170 g
same,% Difference from Initial,[2]; 215 hours since initial,3.96%
same,% Difference from Prev. Weighing,[2]; 215 hours since initial,0.02%
same,Weight of Sample,[2]; 215 hours since initial,0.5171 g
same,% Difference from Initial,[2]; 246 hours since initial,4.22%
same,% Difference from Prev. Weighing,[2]; 246 hours since initial,0.25%
same,Weight of Sample,[2]; 246 hours since initial,0.5184 g
same,% Difference from Initial,[2]; 382 hours since initial,4.60%
same,% Difference from Prev. Weighing,[2]; 382 hours since initial,0.37%
same,Weight of Sample,[2]; 382 hours since initial,0.5203 g
same,% Difference from Initial,[2]; 408 hours since initial,4.40%
same,% Difference from Prev. Weighing,[2]; 408 hours since initial,-0.19%
same,Weight of Sample,[2]; 408 hours since initial,0.5193 g
same,% Difference from Initial,[2]; 533 hours since initial,4.40%
same,% Difference from Prev. Weighing,[2]; 533 hours since initial,0.00%
same,Weight of Sample,[2]; 533 hours since initial,0.5193 g
same,Weight of Sample,[2]; initial,0.4974 g
same,weight gain at ambient conditions,[2]; summary in words,substantial weight gain
same,re-equilibration to the hydrated form,[3]; anhydrous form exposed to higher humidities,quickly equilibrated to the hydrated form
"C[C@@H]([C@@H](O)c1ccc(O)cc1)N1CCC(O)(c2ccccc2)CC1 [free base, (1S,2S)-1-(4-hydroxyphenyl)-2-(4-hydroxy-4-phenylpiperidin-1-yl)-1-propanol]",activity as NMDA receptor antagonist,[4],exhibit activity as NMDA (N-methyl-D-aspartic acid) receptor antagonists
same,neuroprotective activity,[5],possesses selective neuroprotective activity
"CC(C(O)c1ccc(O)cc1)N1CCC(O)(c2ccccc2)CC1 [mesylate salt trihydrate, (1S,2S)-1-(4-hydroxyphenyl)-2-(4-hydroxy-4-phenylpiperidin-1-yl)-1-propanol methanesulfonate trihydrate]",breakdown of the crystal structure,[6],less subject to breakdown of the crystal structure
same,shelf life,[6],substantially longer shelf life
same,stability of crystalline form,[6],more stable crystalline form than the corresponding anhydrous salt
same,activity as NMDA receptor antagonist,[4],exhibit activity as NMDA (N-methyl-D-aspartic acid) receptor antagonists
same,loss of waters of hydration,[3]; 0% RH,Loss of waters of hydration is observed
same,weight change,[3]; 52% RH,No weight change
same,weight change,[3]; 98% RH,No weight change
same,weight change,"[3]; ambient laboratory conditions (24-27° C., 31-64% RH's)",No weight change
same,reversibility of weight loss observed at 0% RH,[3]; exposure to higher humidities after 0% RH,reversible
same,weight lost,[7],> 10%
same,neuroprotective activity,[5],possesses selective neuroprotective activity
